US20090246212A1, “DEVELOPMENT OF METHOD FOR SCREENING FOR DRUG CAPABLE OF IMPROVING PRODUCTION OF REGULATORY T CELLS AND METHOD FOR PRODUCING REGULATORY T CELLS USING IMMUNOSUPPRESSIVE MACROLIDE ANTIBIOTIC” (KYOTO UNIVERSITY, priority 2005, published 2009)

Key:
Type in all cases: cell-based, human
[1] = tested on: CD45RA^+CD25^−CD4^+ T cells; assay: Expansion culture of CD45RA^+CD25^−CD4^+ T cells with allogenic PBMCs and IL-2, everolimus added; conditions: everolimus 100 nM or 1000 nM from the start of cultivation
Protocol: (§1) CD45RA^+CD25^+CD4^+ T cells or CD45RA^+CD25^−CD4^+ T cells in human peripheral blood (5×10̂4 cells/well) were stimulated with 1×10̂5 cells/well radiated (40 Gy) allogenic PBMCs in a 96-well round-bottomed culture plate containing 200 μl per well of a proliferation medium (AlyS505N (produced by Cell Science & Technology Institute) supplemented with 2% human AB serum) in the presence of human IL-2 (1000 U/ml, produced by Cell Science & Technology Institute).
(§2) Everolimus (100 nM or 1000 nM, produced by Novartis Pharma) was added to the medium from the start of cultivation. The everolimus was purified as follows: Certican 0.25 mg tablet (produced by Novartis Pharma) was milled and dissolved in acetone. Then, the solution was filtered, the filtrate was evaporated while rotating, and the precipitate was vacuum-dried. The extract obtained was dissolved in DMF and separated by HPLC (column C18 4 μm, 150×2.1 mm). After separation, the everolimus was freeze-dried and purified.
(§3) Every 3 to 4 days, half of the medium was replaced with a fresh proliferation medium containing IL-2. If necessary, the cells were separated and repeatedly re-stimulated with radiated (40 Gy) allogenic PBMC every 10 to 14 days. Fifty days after the start of cultivation, the cells were collected and used for functional assay.

[2] = tested on: CD45RA^+CD25^−CD4^+ T cell line; assay: Suppression assay ([^3H] thymidine uptake) of the everolimus-cultured CD45RA^+CD25^−CD4^+ T cell line; conditions: cultivation in the presence of everolimus, 50 days; compared with the control
Protocol: as §1
as §2, with “The extract obtained was dissolved in DMF and separated by HPLC (column C18 4 μm, 150×2.1 mm). After separation, the everolimus was freeze-dried and purified.” left out
(§4) The indicated number of cells of the expanded CD45RA^+CD25^+CD4^+ T cell line or expanded CD45RA^+CD25^−CD4^+ T cell line, alone or along with autologous responder CD4^+ T cells (5×10̂4 cells/well), were stimulated with radiated (40 Gy) PBMCs (1×10̂5 cells/well) obtained from the same individual as the allogenic PBMCs used for the cultivation, in a proliferation medium in a round-bottomed 96-well microplate. […] Subsequently, the cells were recovered, and [^3H] thymidine uptake was measured using 1450 Microbeta TriLux (Wallac).

[3] = tested on: CD45RA^+CD25^+CD4^+ T cell line; assay: Suppression assay ([^3H] thymidine uptake) of the everolimus-cultured CD45RA^+CD25^+CD4^+ T cell line; conditions: cultivation in the presence of everolimus, 50 days; compared with controls
Protocol: as §1
as §2, with “The extract obtained was dissolved in DMF and separated by HPLC (column C18 4 μm, 150×2.1 mm). After separation, the everolimus was freeze-dried and purified.” left out
as §4

[4] = tested on: CD45RA^+CD25^+CD4^+ T cells; assay: Expansion culture of CD45RA^+CD25^+CD4^+ T cells with allogenic PBMCs and IL-2, everolimus added; conditions: everolimus 1000 nM from the start of cultivation
Protocol: as §1, §2, §3

CO[C@H]1C[C@@H]2CC[C@@H](C)[C@@](O)(O2)C(=O)C(=O)N2CCCC[C@H]2C(=O)O[C@H]([C@H](C)C[C@@H]2CC[C@@H](OCCO)[C@H](OC)C2)CC(=O)[C@H](C)/C=C(\C)[C@@H](O)[C@@H](OC)C(=O)[C@H](C)C[C@H](C)/C=C/C=C/C=C/1C [everolimus, 42-O-(2-hydroxy)ethyl-rapamycin]
proliferation of CD45RA^+CD25^−CD4^+ T cells [1]: enhanced | T cell line's effect on proliferation of CD4^+ T cells in response to alloantigen-presenting cells [2]: more strongly suppressed | T cell line's effect on proliferation of CD4^+ T cells in response to alloantigen-presenting cells [3]: more strongly suppressed | proliferation of CD45RA^+CD25^+CD4^+ T cells [4]: suppressed
